Values of other authors in patent US20080139615A1, “COMBINATION OF A HYPNOTIC AGENT AND R (+)-ALPHA-(2,3-DIMETHOXY-PHENYL)-1-[2-(4-FLUOROPHENYL)ETHYL]-4-PIPERIDINEMETHANOL AND THERAPEUTIC APPLICATION THEREOF” (priority 2005, published 2008).

Assays:
[1] = system: slow wave sleep (SWS), arousals; settings: patients with sleep maintenance insomnia
[2] = average dosage between 5 and 10 mg, conventional formulation

Row | SMILES | SWS (slow wave sleep) [1] | acting time [2] | half life (average value) [2]
1 | COc1cccc([C@H](O)C2CCN(CCc3ccc(F)cc3)CC2)c1OC [Compound A, R-(+)-α-(2,3-dimethoxyphenyl)-1-[2-(4-fluorophenyl)ethyl]-4-piperidinemethanol] | increase |  | 
2 | Cc1ccc(-c2nc3ccc(C)cn3c2CC(=O)N(C)C)cc1 [Zolpidem, zolpidem] |  | up to 6 hours | about 2.4 hours
